Data on 14 compounds can be found in patent US20250304544A1, “MOLEPHANTIN DERIVATIVES USEFUL IN THE TREATMENT OF CANCER” (Nanyang Technological University, priority 2021, published 2025).

For one test, the system named is H1299. Nature of the test: MTT cytotoxicity assay, H1299. Format: cell-based. Particulars: Homo sapiens, NCI-H1299, H1299, lung carcinoma, 48 hours, absolute IC50. How it is done:
(§1) To test the cytotoxicity effect of the compounds NYH001-NYH005 in various cancer cell types, different cancer cells were treated with the compounds for 48 hours and analyzed using MTT assay. […] Absolute IC50 values of the compounds were calculated (Table 1, FIG. 1A-C).
Background: Tetrazolium assays rely on reduction of a dye to a coloured formazan, in cell work by metabolically active cells.

A further test deals with HCT116. Nature of the test: MTT cytotoxicity assay, HCT116. Format: cell-based. Particulars: Homo sapiens, HCT-116, HCT116, colon carcinoma, 48 hours, absolute IC50. The protocol: as §1
For another test, the system named is AGS. Briefly: MTT cytotoxicity assay, AGS. Particulars: Homo sapiens, stomach adenocarcinoma, 48 hours, absolute IC50. Format: cell-based. How it is done:
as §1

The subject of a further test is A549. Nature of the test: MTT cytotoxicity assay, A549. It counts as cell-based. As to conditions: Homo sapiens, A549, lung carcinoma, 48 hours, absolute IC50. The protocol:
as §1

A further test concerns DLD-1. Nature of the test: MTT cytotoxicity assay, DLD-1. Format: cell-based. Particulars: Homo sapiens. The protocol:
as §1

In test [1] the test system is human hepatoma cell line (SMMC-7221). Particulars: cited from earlier work; for pIC50: read-out: IC50.
The subject of the next test is Mcf-7. Nature of the test: MTT cytotoxicity assay, Mcf-7. Format: cell-based. As to conditions: Homo sapiens, MCF7, Mcf-7, breast adenocarcinoma, 48 hours, absolute IC50. The protocol:
as §1

A further test deals with Huh7. Briefly: MTT cytotoxicity assay, Huh7. It counts as cell-based. Particulars: Homo sapiens, Huh-7, Huh7, liver carcinoma, 48 hours, absolute IC50. The protocol:
as §1

The subject of test [2] is human myeloid leukemia cell line K562. Particulars: cited from earlier work; for pIC50: read-out: IC50.
The subject of a further test is Du145. Briefly: MTT cytotoxicity assay, Du145. It counts as cell-based. Particulars: Homo sapiens, DU-145, Du145, prostate carcinoma, 48 hours, absolute IC50. The protocol:
as §1

A further test deals with Hep3B. Nature of the test: MTT cytotoxicity assay, Hep3B. It counts as cell-based. Particulars: Homo sapiens, liver carcinoma, 48 hours, absolute IC50. The protocol: as §1
Another test deals with Hs746T. Nature of the test: MTT cytotoxicity assay, Hs746T. It counts as cell-based. Particulars: Homo sapiens, stomach carcinoma, 48 hours, absolute IC50. The protocol:
as §1

For another test, the system named is HCT116 cells xenograft. Briefly: HCT116 subcutaneous tumour xenograft mouse model. It counts as in vivo. Particulars: HCT116 xenografted mice, 25 mg/kg intraperitoneal once every 2 days, after 21 days. How it is done: (§2) Female J:Nu outbred nude mice (5-6 weeks old) were injected subcutaneously at the right flank with 1×10^6 HCT116 or DLD-1 cells in 1:1 Hank's Balanced salt solution/Matrigel. Mice were assigned into treatment groups (4-5 mice per group) when tumour volumes reached 50-100 mm^3. Vehicle control (Ethanol:Kolliphor EL:saline=1:1:8), NYH001 (25 mg/kg), NYH002 (25 mg/kg) or 5-flurouracil (5-FU, 25 mg/kg) was given once every 2 days by intraperitoneal injection for 3 weeks. Bodyweight of the mice was taken every day and tumour size was measured twice a week. Tumour sizes were calculated using the formula, volume=(length×width^2)/2 mm^3. At the end of the 3 weeks treatment period, the mice were sacrificed and tumours excised. All procedures were approved by the NTU Institutional Animal Care and Use Committee (IACUC) and conducted in accordance with the IACUC protocol A20001.

The next test relates to PC3. Nature of the test: MTT cytotoxicity assay, PC3. Format: cell-based. As to conditions: Homo sapiens, PC-3, PC3, prostate adenocarcinoma, 48 hours, absolute IC50. The protocol:
as §1

Another test concerns MDA-MB-231. Briefly: MTT cytotoxicity assay, MDA-MB-231. Format: cell-based. As to conditions: Homo sapiens, MDA-MB-231, breast adenocarcinoma, 48 hours, absolute IC50. How it is done:
as §1

The next test deals with cancer cells. Briefly: Colony formation (clonogenic) assay. Format: cell-based. As to conditions: some cell lines, concentration as low as 1 μM. How it is done:
To further confirm the growth inhibitory effect of compounds on cancer cells, colony formation assays were performed. Cells were treated with various doses of the compounds and allowed to grow for 7-10 days till they form colonies. Colonies were fixed and stained with 0.5% w/v crystal violet, containing methanol. The cell culture plates were rinsed with distilled water before scanning for quantification. Colony counts were quantified using Image J software.

For the next test, the system named is DLD-1 cells xenograft. Nature of the test: DLD-1 subcutaneous tumour xenograft mouse model. Format: in vivo. Particulars: DLD-1 xenografted mice, 25 mg/kg intraperitoneal once every 2 days, after 21 days. How it is done:
as §2

Test [3] concerns human KB oral carcinoma cells. Particulars: cytotoxic activity / proliferation; cited from earlier work.
Where [4] appears, read: DLD-1, colon adenocarcinoma, 48 hours, MTT, absolute IC50, read-out: IC50.

By pIC50 is commonly meant the negative decadic logarithm of the IC50, by convention in mol/L.

pIC50: −log10 of the molar value. Read-outs that look alike come from different tables or passages of the source.

As to `C=C(C)C(=O)O[C@H]1C/C(C)=C/C(=O)/C=C(/C)[C@@H](O)[C@H]2OC(=O)C(=C)C12` (some centres unmarked) [NYH001, Molephantin], the pIC50 in the test on H1299 was 5.53; in the test with HCT116, 5.58; in the test on AGS, 5.81; with A549, 4.82; with DLD-1 (setting [4]), 5.82; in test [1], 5.24. In addition, the pIC50 was 5.32 with Mcf-7; 5.54 in the test on Huh7; 5.10 in test [2]; 5.38 in the test on Du145; 5.50 in the test with Hep3B; 5.72 with Hs746T. Further, the pIC50 is 5.61 in the test on PC3 and 5.52 with MDA-MB-231. The “reduction of average tumor volume compared to vehicle control” value (shortened to “reduction of average tumor volume”) in the test with HCT116 cells xenograft was found to be 35.4%. The “reduction of average tumor weight compared to vehicle control” value (from here on “reduction of average tumor weight”) with HCT116 cells xenograft was determined as 41.7%.
`C=C(C)C(=O)O[C@H]1C/C(C)=C/C(=O)/C=C(/C)[C@@H](OC(=O)c2ccccc2)[C@H]2OC(=O)C(=C)C12` (some centres unmarked) [NYH002]: the colonies formed entry in the test with cancer cells is on record as “did not result in any colonies formed”. Besides, the pIC50 with H1299 was 5.87; with HCT116, 6.06; in the test with AGS, 6.38; in the test on A549, 5.29; in the test on DLD-1 (setting [4]), 6.45; with Mcf-7, 5.70. The negative-log IC50 (pIC50) in the test with Huh7 is 5.94; in the test with Du145, 5.63; in the test on Hep3B it was 6.04; with Hs746T, 6.33; in the test on PC3, 5.89; with MDA-MB-231 it was 6.04. The figures for the “reduction of average tumor volume” value in the test on HCT116 cells xenograft and in the test on DLD-1 cells xenograft were 46.5% and 51.9%, respectively. Further, the “reduction of average tumor weight” value in the test with HCT116 cells xenograft worked out at 49.3%; in the test with DLD-1 cells xenograft, 57.3%.
On to Tomenphantopin-B, for which the ED50 in test [3] is 5.0 µg/mL.
As to Tomenphantopin-D, the pIC50 was 4.95 in test [1] and 4.35 in [2].
`C=C(C)C(=O)O[C@H]1C/C(C)=C\[C@@]2(OC)C=C(C)[C@@H](O2)[C@H]2OC(=O)[C@@H](COC)[C@@H]21` [Tomenphantopin-C]: the IC50 result in test [1] and in test [2] was “inactive” in each case.
Consider Tomenphantopin-F, for which the IC50 entry in [1] and in test [2] was “inactive” in each case.
Regarding Tomenphantopin-A, the ED50 in test [3] was 2.5 µg/mL.
As for Tomenphantopin-E, the IC50 result in test [1] and in [2] was “inactive” throughout.
Turning to Tomenphantine-A, the ED50 in test [3] was 3.0 µg/mL.
Consider `C=C(C)C(=O)O[C@H]1C/C(C)=C/C(=O)/C=C(/C)[C@@H](OC(=O)c2ccc(C(F)(F)F)cc2)[C@H]2OC(=O)C(=C)C12` (some centres unmarked) [NYH004], for which the pIC50 with H1299 was 5.78; with HCT116 it was 5.88; in the test with AGS, 5.99; in the test with A549, 5.28; in the test on DLD-1 (setting [4]), 6.03; in the test on Mcf-7 it was 5.69. Besides, the pIC50 was 5.80 in the test on Huh7; 5.52 with Du145; 5.73 in the test with Hep3B; 5.92 in the test on Hs746T; 5.70 with PC3; 5.94 in the test on MDA-MB-231.
Consider `O=c1[nH]cc(F)c(=O)[nH]1` [5-FU, 5-flurouracil, reference compound], for which, in the test with HCT116 cells xenograft, the “reduction of average tumor volume” value was 10.4% and the “reduction of average tumor weight” value came to 21.9%. Besides, in the test on DLD-1 cells xenograft, the “reduction of average tumor volume” value was found to be 32.3% and the “reduction of average tumor weight” value is 38.7%.
On to Tomenphantine-B, for which the ED50 in test [3] is 2.7 µg/mL.
Take `C=C(C)C(=O)O[C@H]1C/C(C)=C/C(=O)/C=C(/C)[C@@H](OC(=O)c2ccc([N+](=O)[O-])cc2)[C@H]2OC(=O)C(=C)C12` (some centres unmarked) [NYH007]: in the test on DLD-1 (DLD-1 cells, read-out: IC50 (cytotoxic effect)), the pIC50 was 6.46.
Regarding `C=C(C)C(=O)O[C@H]1C/C(C)=C/C(=O)/C=C(/C)[C@@H](OC(=O)c2cc(C(F)(F)F)cc(C(F)(F)F)c2)[C@H]2OC(=O)C(=C)C12` (some centres unmarked) [NYH005], the pIC50 was 5.81 with H1299; 5.80 in the test with HCT116; 5.95 in the test with AGS; 5.23 in the test with A549; 6.21 with DLD-1 (setting [4]); 5.62 in the test with Mcf-7. The pIC50 in the test on Huh7 is 5.68; in the test with Du145, 5.44; with Hep3B, 5.70; with Hs746T, 5.71; in the test with PC3, 5.61; with MDA-MB-231 it was 5.83.
